From patent US3933794A, “2-(2-Alkynylamino)-3H-1,4-benzodiazepines” (priority 1973, dated 1976) come the findings set out here.

Molecules are shown by their SMILES.

Holding throughout (type): in vivo
Assay [1] deals with mice. The assay can be described thus: Dish test. The conditions noted are these: Mus musculus, ip, 0.05 h, intraperitoneal injection, 50% of mice remain in dish for more than 3 minutes, read-out: ED50 D (dish test). The method, then:
(§1) Sedative effects of the compounds of this invention are shown by the following tests in mice:
Dish test: Mice in Petri dishes (10 cm. diameter, 5 cm. high, partially embedded in wood shavings), climb out in a very short time, when not treated. Mice remaining in the dish for more than 3 minutes indicates tranquilization. ED50 equals the dose of test compound at which 50% of the mice remain in the dish.

Assay [2] relates to mice. The assay can be described thus: Nicotine antagonism test. The conditions noted are these: Mus musculus, ip, 0.5 h, intraperitoneal injection, nicotine salicylate 2 mg./kg. 30 minutes later, (3) = death, read-out: ED50 Ni (nicotine antagonism (3) test). The method, then:
as §1
Nicotine antagonism test: Mice in a group of 6 are injected with the text compound. Thirty minutes later the mice including control (untreated) mice are injected with nicotine salicylate (2 mg./kg.). The control mice show over-stimulation, i.e., (1) running convulsions followed by (2) tonic extensor filts; followed by (3) death.

Assay [3] relates to mice. Put plainly: Chimney test. Conditions: Mus musculus, ip, intraperitoneal injection, 50% of mice fail to back out of glass cylinder within 30 seconds, read-out: ED50 Ch (chimney test).
From the text: as §1
Chimney test: [Med. Exp. 4, 145 (1961)]: The test determines the ability of mice to back up and out of a vertical glass cylinder within 30 seconds. At the effective dosage, 50% of the mice failed doing it.

The test system of assay [4] is mice. The assay can be described thus: Antagonism to strychnine (as sulfate). The conditions noted are these: Mus musculus, ip, 4 h, read-out: ED50 Str (strychnine antagonism). The method, then:
as §1
Antagonism to strychnine (as sulfate): The test consists in orally administering into groups of 6 mice the test compound, and 30 minutes later 3 mg./kg. strychnine sulfate intraperitoneally. The survivors after 4 hours reflect the activity of the compound as a muscle relaxant and antispasmodic. A dosage of 3 mg./kg. of strychnine sulfate is routinely fatal to all the control mice.

Assay [5] deals with mice. Put plainly: Pedestal test. The conditions noted are these: Mus musculus, ip, 1 min, intraperitoneal injection, mice stay on pedestal for more than 1 minute, read-out: ED50 P (pedestal test). The method, then: as §1
Pedestal test: The untreated mouse leaves a standard pedestal in less than a minute to climb back to the floor of the standard mouse box. Tranquilized mice will stay on the pedestal for more than 1 minutes.

`Cc1cnc2n1-c1ccc(Cl)cc1C(c1ccccc1)=NC2` [8-chloro-1-methyl-6-phenyl-4H-imidazo[1,2-a]-[1,4]benzodiazepine]: the ED50 came to 5 mg/kg in assay [1]; 1.8 mg/kg in assay [2]; 25 mg/kg in assay [3]; 79 mg/kg in assay [4]; 28 mg/kg in assay [5].

For `Cc1cnc2n1-c1ccc(Cl)cc1C(c1ccccc1Cl)=NC2` [8-chloro-6-(2-chlorophenyl)-1-methyl-4H-imidazo[1,2-a][1,4]benzodiazepine], the ED50 came to 0.23 mg/kg in assay [1]; 0.13 mg/kg in assay [2]; 0.5 mg/kg in assay [3]; 1.8 mg/kg in assay [4]; 0.4 mg/kg in assay [5].

Consider `O=Cc1cnc2n1-c1ccc(Cl)cc1C(c1ccccc1)=NC2` [8-chloro-6-phenyl-4H-imidazo[1,2-a][1,4]benzodiazepine-1-carboxaldehyde], for which the ED50 in assay [1] came out at 0.8 mg/kg; in assay [2] it was 0.36 mg/kg; in assay [3], 4 mg/kg; in assay [4], 11 mg/kg; in assay [5], 2.8 mg/kg.
